Experimental data taken from patent US8957093B2, “N-biphenylmethylindole modulators of PPARG” (The Scripps Research Institute, priority 2011, dated 2015).
Read-outs that look alike come from different tables or passages of the source.

Target: GST-PPARG-LBD (Homo sapiens (Human), UniProt P37231)
Assay: Lanthascreen PPARG competitive binding assay (Invitrogen, TR-FRET)
Conditions: NA = not active, inc = incomplete curve; for IC50: read-out: IC50 (nM) Lantha
Description: Lanthascreen PPARG Competitive Binding Assay (Invitrogen)
The assay was performed according to manufacturer protocol. A mixture of […], 5 nM Tb-GST-antibody, 5 nM Fluormone Pan-PPAR Green, and serial dilutions of the experimental compound, beginning at 10 μM downwards, was added to wells of black 384-well low-volume plates (Greiner) to a total volume of 18 μL. All dilutions were made in TR-FRET assay buffer C. DMSO at 2% final concentration was used as a no-ligand control. Experiment was performed in triplicate, and incubated for 2 hours in the dark prior to assay read in Perkin Elmer ViewLux ultra HTS microplate reader. FRET signal was measured by excitation at 340 nm and emission at 520 nm for fluorescein and 490 nm for terbium. Fold change over DMSO was calculated using GraphPad Prism Software (La Jolla, Calif.) by calculating 520 nm/490 nm ratio. Graphs were plotted as fold change of FRET signal for compound treatment over DMSO-only control.

[1] = Lanthascreen competitive binding
[2] = Lanthascreen PPARG competitive binding

Sequence of GST-PPARG-LBD (P37231 238-503): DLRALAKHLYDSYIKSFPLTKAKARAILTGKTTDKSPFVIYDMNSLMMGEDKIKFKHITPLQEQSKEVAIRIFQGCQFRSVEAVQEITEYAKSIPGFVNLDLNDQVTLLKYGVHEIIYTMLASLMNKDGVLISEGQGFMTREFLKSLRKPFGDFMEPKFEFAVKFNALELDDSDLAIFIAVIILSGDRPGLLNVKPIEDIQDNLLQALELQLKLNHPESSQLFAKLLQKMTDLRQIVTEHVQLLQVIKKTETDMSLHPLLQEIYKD

Row | Structure (SMILES) | IC50 [1] | other results
1 | Cc1c(C)n(Cc2ccc(-c3ccccc3C(=O)O)cc2)c2ccc(C(=O)NCc3cccc4ccccc34)cc12 [Example 115, 4′-((2,3-dimethyl-5-(naphthalen-1-ylmethylcarbamoyl)-1H-indol-1-yl)methyl)biphenyl-2-carboxylic acid] | 64 nM | –
2 | CCC(NC(=O)c1ccc2c(c1)c(C)c(C)n2Cc1ccccc1-c1cccc(C(=O)O)c1)c1ccccc1 (stereo not drawn) [Example 126, 2′-((2,3-Dimethyl-5-((1-phenylpropyl)carbamoyl)-1H-indol-1-yl)methyl)-[1,1′-biphenyl]-3-carboxylic acid] | 99 nM | –
3 | Cc1cn(Cc2ccc(-c3ccccc3C(=O)O)cc2)c2ccc(C(=O)N[C@@H](C)c3ccc(Br)cc3)cc12 [Example 132, (S)-4′-((5-((1-(4-Bromophenyl)ethyl)carbamoyl)-3-methyl-1H-indol-1-yl)methyl)-[1,1′-biphenyl]-2-carboxylic acid] | 24 nM | –
4 | COc1c(F)cccc1[C@H](C)NC(=O)c1ccc2c(c1)c(C)c(C)n2Cc1ccc(-c2ccccc2C(=O)O)cc1 [Example 177, (S)-4′-((5-((1-(3-fluoro-2-methoxyphenyl)ethyl)carbamoyl)-2,3-dimethyl-1H-indol-1-yl)methyl)-[1,1′-biphenyl]-2-carboxylic acid] | 21 nM | –
5 | Cc1c(C)n(Cc2ccc(-c3ccccc3C#N)cc2)c2ccc(C(=O)N[C@@H](C)c3ccc(C(C)(C)C)cc3)cc12 [Example 184, (S)—N-(1-(4-(tert-butyl)phenyl)ethyl)-1-((2′-cyano-[1,1′-biphenyl]-4-yl)methyl)-2,3-dimethyl-1H-indole-5-carboxamide] | – | IC50 (nM) Lantha [1]: ^2inc^
6 | Cc1c(C)n(Cc2ccc(-c3ccccc3C#N)cc2)c2ccc(C(=O)N[C@@H](C)c3cccc(C(C)(C)C)c3)cc12 [Example 185, (S)—N-(1-(3-(tert-butyl)phenyl)ethyl)-1-((2′-cyano-[1,1′-biphenyl]-4-yl)methyl)-2,3-dimethyl-1H-indole-5-carboxamide] | – | IC50 (nM) Lantha [1]: inc
7 | Cc1c(C)n(Cc2ccc(-c3ccccc3C#N)cc2)c2ccc(C(=O)N[C@@H](C)c3ccc(C(C)C)cc3)cc12 [Example 186, (S)-1-((2′-cyano-[1,1′-biphenyl]-4-yl)methyl)-N-(1-(4-isopropylphenyl)ethyl)-2,3-dimethyl-1H-indole-5-carboxamide] | – | IC50 (nM) Lantha [1]: inc
8 | CC[C@H](NC(=O)c1ccc2c(ccn2Cc2ccccc2-c2ccc(C(=O)O)cc2)c1)c1ccccc1 [Example 189, (S)-2′-((5-((1-phenylpropyl)carbamoyl)-1H-indol-1-yl)methyl)-[1,1′-biphenyl]-4-carboxylic acid] | 100 nM | –
9 | Cc1c(C)n(Cc2ccc(-c3ccccc3C(=O)O)cc2)c2ccc(C(=O)N[C@H](C)c3c(F)cncc3F)cc12 [Example 215, (R)-4′-((5-((1-(3,5-difluoropyridin-4-yl)ethyl)carbamoyl)-2,3-dimethyl-1H-indol-1-yl)methyl)-[1,1′-biphenyl]-2-carboxylic acid] | 309 nM | –
10 | Cc1c(C)n(Cc2ccc(-c3ccccc3C#N)cc2)c2ccc(C(=O)N[C@@H](C)c3cccc(C(C)C)c3)cc12 [Example 242, (S)-1-((2′-cyano-[1,1′-biphenyl]-4-yl)methyl)-N-(1-(3-isopropylphenyl)ethyl)-2,3-dimethyl-1H-indole-5-carboxamide] | – | IC50 (nM) Lantha [1]: inc
11 | Cc1c(C)n(Cc2ccc(-c3ccccc3S(=O)(=O)NC(C)(C)C)cc2)c2ccc(C(=O)N[C@@H](C)c3cccc(C(C)C)c3)cc12 [Example 246, (S)-1-((2′-(N-(tert-butyl)sulfamoyl)-[1,1′-biphenyl]-4-yl)methyl)-N-(1-(3-isopropylphenyl)ethyl)-2,3-dimethyl-1H-indole-5-carboxamide] | > 1000 nM | –
12 | Cc1c(C)n(Cc2ccc(-c3ccccc3S(N)(=O)=O)cc2)c2ccc(C(=O)N[C@@H](C)c3cccc(C(C)C)c3)cc12 [Example 247, (S)—N-(1-(3-isopropylphenyl)ethyl)-2,3-dimethyl-1-((2′-sulfamoyl-[1,1′-biphenyl]-4-yl)methyl)-1H-indole-5-carboxamide] | > 1000 nM | –
13 | CC(=O)NS(=O)(=O)c1ccccc1-c1ccc(Cn2c(C)c(C)c3cc(C(=O)N[C@@H](C)c4cccc(C(C)C)c4)ccc32)cc1 [Example 248, (S)-1-((2′-(N-acetylsulfamoyl)-[1,1′-biphenyl]-4-yl)methyl)-N-(1-(3-isopropylphenyl)ethyl)-2,3-dimethyl-1H-indole-5-carboxamide] | > 1000 nM | –
14 | Cc1c(C)n(Cc2ccc(-c3ccccc3C(=O)O)cc2)c2ccc(C(=O)N[C@@H](C)c3ccccc3OC(F)(F)F)cc12 [Example 256, (S)-4′-((2,3-dimethyl-5-(1-(2-(trifluoromethoxy)phenyl)ethylcarbamoyl)-1H-indol-1-yl)methyl)biphenyl-2-carboxylic acid] | 38 nM | –
15 | Cc1c(C)n(Cc2ccc(-c3ccccc3C(=O)O)cc2)c2ccc(C(=O)N[C@@H](C)c3ccc(S(C)(=O)=O)cc3)cc12 [Example 258, (S)-4′-((2,3-dimethyl-5-(1-(4-(methylsulfonyl)phenyl)ethylcarbamoyl)-1H-indol-1-yl)methyl)biphenyl-2-carboxylic acid] | 636 nM | –
16 | Cc1c(C)n(Cc2ccc(-c3ccccc3C(=O)O)cc2)c2ccc(C(=O)N[C@@H](C)c3cc(Cl)ccn3)cc12 [Example 265, (S)-4′-((5-((1-(4-chloropyridin-2-yl)ethyl)carbamoyl)-2,3-dimethyl-1H-indol-1-yl)methyl)-[1,1′-biphenyl]-2-carboxylic acid] | 4 nM | –
17 | Cc1c(C)n(Cc2ccc(-c3ccccc3C(=O)O)cc2)c2ccc(C(=O)N[C@H](C)c3ccc(S(C)(=O)=O)cc3)cc12 [Example 276, (R)-4′-((2,3-dimethyl-5-(1-(4-(methylsulfonyl)phenyl)ethylcarbamoyl)-1H-indol-1-yl)methyl)biphenyl-2-carboxylic acid] | – | IC50 [2]: 11 nM
18 | Cc1c(C)n(Cc2ccc(-c3ccccc3C#N)cc2)c2ccc(C(=O)N[C@@H](C)c3ccc(C(F)(F)F)cc3)cc12 [Example 277, (S)-1-((2′-cyano-[1,1′-biphenyl]-4-yl)methyl)-2,3-dimethyl-N-(1-(4-(trifluoromethyl)phenyl)ethyl)-1H-indole-5-carboxamide] | – | IC50 (nM) Lantha [2]: inc
19 | Cc1c(C)n(Cc2ccc(-c3ccccc3C#N)cc2)c2ccc(C(=O)N[C@@H](C)c3ccc(OC(C)C)cc3)cc12 [Example 278, (S)-1-((2′-cyano-[1,1′-biphenyl]-4-yl)methyl)-N-(1-(4-isopropoxyphenyl)ethyl)-2,3-dimethyl-1H-indole-5-carboxamide] | – | IC50 [2]: 808 nM
20 | Cc1c(C)n(Cc2ccc(-c3ccccc3C#N)cc2)c2ccc(C(=O)N[C@@H](C)c3ccc(OC(F)(F)F)cc3)cc12 [Example 279, (S)-1-((2′-cyano-[1,1′-biphenyl]-4-yl)methyl)-2,3-dimethyl-N-(1-(4-(trifluoromethoxy)phenyl)ethyl)-1H-indole-5-carboxamide] | – | IC50 (nM) Lantha [2]: inc
21 | CCOc1cccc([C@H](C)NC(=O)c2ccc3c(c2)c(C)c(C)n3Cc2ccc(-c3ccccc3C#N)cc2)c1 [Example 280, (S)-1-((2′-cyano-[1,1′-biphenyl]-4-yl)methyl)-N-(1-(3-ethoxyphenyl)ethyl)-2,3-dimethyl-1H-indole-5-carboxamide] | – | IC50 (nM) Lantha [2]: inc
